Each block holds one compound with its values, some of them ahead of it.
What was measured:
[1] = biological target: T1, DNA repair and recombination protein RAD54-like (Homo sapiens, UniProt Q92698); assay: Inhibition of RAD54 (unknown origin) ATPase activity assessed as generation of reactive oxygen species
T1 sequence (Q92698 whole entry): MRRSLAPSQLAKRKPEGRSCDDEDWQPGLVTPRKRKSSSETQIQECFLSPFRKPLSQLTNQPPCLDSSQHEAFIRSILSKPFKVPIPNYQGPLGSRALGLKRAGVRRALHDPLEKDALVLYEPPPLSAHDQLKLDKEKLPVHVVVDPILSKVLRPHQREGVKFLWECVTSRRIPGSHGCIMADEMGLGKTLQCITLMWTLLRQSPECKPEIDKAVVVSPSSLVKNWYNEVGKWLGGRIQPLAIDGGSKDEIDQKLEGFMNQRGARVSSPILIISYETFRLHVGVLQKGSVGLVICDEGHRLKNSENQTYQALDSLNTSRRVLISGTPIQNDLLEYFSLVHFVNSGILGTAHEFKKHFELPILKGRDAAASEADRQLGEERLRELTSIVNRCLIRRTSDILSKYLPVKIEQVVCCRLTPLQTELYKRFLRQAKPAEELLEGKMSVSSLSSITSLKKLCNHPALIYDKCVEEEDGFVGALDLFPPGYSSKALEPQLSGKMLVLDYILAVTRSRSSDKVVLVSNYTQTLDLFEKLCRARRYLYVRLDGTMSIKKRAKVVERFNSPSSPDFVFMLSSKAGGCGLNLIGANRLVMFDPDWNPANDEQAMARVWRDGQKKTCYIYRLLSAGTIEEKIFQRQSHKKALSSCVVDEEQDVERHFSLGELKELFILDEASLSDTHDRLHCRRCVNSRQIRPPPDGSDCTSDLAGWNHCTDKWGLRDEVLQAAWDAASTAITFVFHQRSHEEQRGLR

[2] = biological target: Bifunctional 3'-5' exonuclease/ATP-dependent helicase WRN (Homo sapiens, UniProt Q14191); assay: Inhibition of WRN helicase (unknown origin)
[3] = biological target: T2, DNA repair protein RAD51 homolog 1 (Homo sapiens) (UniProt Q06609); assay: Inhibition of RAD51 in human HeLa cells expressing DR-GFP construct assessed as reduction in […]-induced homologous recombination at 20 uM; assay type: cell-based
T2 sequence (whole entry): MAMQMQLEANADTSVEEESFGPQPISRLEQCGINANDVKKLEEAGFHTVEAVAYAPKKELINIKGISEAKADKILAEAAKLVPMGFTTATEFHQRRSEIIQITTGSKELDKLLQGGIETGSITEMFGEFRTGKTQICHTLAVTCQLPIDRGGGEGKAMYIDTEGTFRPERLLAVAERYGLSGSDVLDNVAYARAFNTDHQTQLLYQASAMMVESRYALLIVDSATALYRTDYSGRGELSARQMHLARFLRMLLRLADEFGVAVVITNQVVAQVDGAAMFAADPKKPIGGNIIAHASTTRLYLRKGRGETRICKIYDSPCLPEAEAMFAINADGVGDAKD

[4] = biological target: T2, DNA repair protein RAD51 homolog 1 (Homo sapiens); assay: Inhibition of RAD51 in human MCF7 cells assessed as reduction in IR-induced RAD51 foci formation at 20 uM; assay type: cell-based
[5] = biological target: DNA repair protein RAD51 homolog 1 (Homo sapiens) (UniProt Q06609); assay: Inhibition of RAD51 (unknown origin) binding to ssDNA
[6] = biological target: T2, DNA repair protein RAD51 homolog 1 (Homo sapiens); assay: Induction of RAD51 in cisplatin-treated neonatal human skin fibroblast assessed as increase in survival at 7.5 uM relative to untreated control

Bifunctional 3'-5' exonuclease/ATP-dependent helicase WRN, sequence (Q14191 whole entry): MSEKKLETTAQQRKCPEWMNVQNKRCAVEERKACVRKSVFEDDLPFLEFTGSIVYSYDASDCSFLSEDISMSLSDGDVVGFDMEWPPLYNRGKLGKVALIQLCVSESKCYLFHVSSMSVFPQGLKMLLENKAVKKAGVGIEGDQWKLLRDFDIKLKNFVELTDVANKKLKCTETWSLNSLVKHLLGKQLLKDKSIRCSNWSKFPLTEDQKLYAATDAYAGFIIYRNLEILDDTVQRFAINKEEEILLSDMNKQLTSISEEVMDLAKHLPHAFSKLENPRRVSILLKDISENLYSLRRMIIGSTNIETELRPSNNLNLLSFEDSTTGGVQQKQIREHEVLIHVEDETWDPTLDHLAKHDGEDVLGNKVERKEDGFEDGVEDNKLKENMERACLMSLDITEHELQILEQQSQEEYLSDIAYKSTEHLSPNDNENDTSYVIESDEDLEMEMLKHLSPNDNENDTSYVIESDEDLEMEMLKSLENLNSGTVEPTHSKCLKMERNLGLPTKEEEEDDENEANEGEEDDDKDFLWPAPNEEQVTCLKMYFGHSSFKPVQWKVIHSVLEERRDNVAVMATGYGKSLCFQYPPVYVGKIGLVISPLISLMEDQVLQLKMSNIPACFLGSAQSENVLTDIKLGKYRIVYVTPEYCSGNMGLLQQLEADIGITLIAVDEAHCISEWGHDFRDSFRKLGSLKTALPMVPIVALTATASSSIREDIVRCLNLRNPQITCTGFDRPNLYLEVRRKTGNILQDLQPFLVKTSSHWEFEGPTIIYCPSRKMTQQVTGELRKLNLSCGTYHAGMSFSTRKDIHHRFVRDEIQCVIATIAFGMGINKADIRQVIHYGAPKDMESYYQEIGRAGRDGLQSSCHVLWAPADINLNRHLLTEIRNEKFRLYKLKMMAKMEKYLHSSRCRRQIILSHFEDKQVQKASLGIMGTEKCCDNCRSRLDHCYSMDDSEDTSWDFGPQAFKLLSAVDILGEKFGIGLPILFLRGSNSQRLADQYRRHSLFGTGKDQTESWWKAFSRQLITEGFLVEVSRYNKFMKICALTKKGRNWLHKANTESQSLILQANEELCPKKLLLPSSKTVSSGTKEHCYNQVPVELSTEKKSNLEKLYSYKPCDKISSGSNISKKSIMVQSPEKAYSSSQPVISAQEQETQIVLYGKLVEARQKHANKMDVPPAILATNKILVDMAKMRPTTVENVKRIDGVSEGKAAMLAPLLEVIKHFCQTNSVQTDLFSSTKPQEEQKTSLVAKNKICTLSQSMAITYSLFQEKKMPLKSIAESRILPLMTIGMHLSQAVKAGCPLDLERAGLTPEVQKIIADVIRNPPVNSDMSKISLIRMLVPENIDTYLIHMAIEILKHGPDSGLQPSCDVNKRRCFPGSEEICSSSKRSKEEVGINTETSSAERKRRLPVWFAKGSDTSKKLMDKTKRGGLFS

SMILES: O=C(Nc1ccc(F)c(C(F)(F)F)c1)Nc1nnc(-c2ccncc2)s1
- IC50 [2]: 5 µM

SMILES: CCC(=O)OCN1C(=O)C=CC1=O
- IC50 [2]: 20 µM

SMILES: O=C(Nc1ccc(Br)cc1)c1ccc(Br)c(S(=O)(=O)NCc2ccccc2)c1
- fold change (FC) [6]: 1.5

Further lines, results first:

- EC50 [1]: 16.5 µM
SMILES: COC1=C(N)C(=O)c2nc(-c3nc(C(=O)O)c(C)c(-c4ccc(OC)c(OC)c4O)c3N)ccc2C1=O [STREPTONIGRIN]

- fold change (FC) [3]: 10
- fold change (FC) [4]: 2
SMILES: O=S(=O)(Cc1ccccc1)N1C=Cc2ccccc2C1c1c[nH]c2ccccc12 (configuration not stated)

- EC50 [5]: 44 µM
SMILES: COc1ccc(C2=C(N3CCOCC3)C(=O)N(c3ccc(Cl)c(Cl)c3)C2=O)cc1

From ChEMBL document CHEMBL3352588, “Targeting the homologous recombination pathway by small molecule modulators” (Bioorg Med Chem Lett, 2014)
